Our source for the IC50 values is patent publication US8039514B2, “Sulfonamide compounds and use thereof” (Asahi Kasei Pharma Corporation, priority 2008, dated 2011).

This assay concerns the target T1, human calcium-sensing receptor (CaSR) (Homo sapiens, UniProt P41180).
T1 construct: expressed in transfected cells
T1 sequence (P41180 20-1078): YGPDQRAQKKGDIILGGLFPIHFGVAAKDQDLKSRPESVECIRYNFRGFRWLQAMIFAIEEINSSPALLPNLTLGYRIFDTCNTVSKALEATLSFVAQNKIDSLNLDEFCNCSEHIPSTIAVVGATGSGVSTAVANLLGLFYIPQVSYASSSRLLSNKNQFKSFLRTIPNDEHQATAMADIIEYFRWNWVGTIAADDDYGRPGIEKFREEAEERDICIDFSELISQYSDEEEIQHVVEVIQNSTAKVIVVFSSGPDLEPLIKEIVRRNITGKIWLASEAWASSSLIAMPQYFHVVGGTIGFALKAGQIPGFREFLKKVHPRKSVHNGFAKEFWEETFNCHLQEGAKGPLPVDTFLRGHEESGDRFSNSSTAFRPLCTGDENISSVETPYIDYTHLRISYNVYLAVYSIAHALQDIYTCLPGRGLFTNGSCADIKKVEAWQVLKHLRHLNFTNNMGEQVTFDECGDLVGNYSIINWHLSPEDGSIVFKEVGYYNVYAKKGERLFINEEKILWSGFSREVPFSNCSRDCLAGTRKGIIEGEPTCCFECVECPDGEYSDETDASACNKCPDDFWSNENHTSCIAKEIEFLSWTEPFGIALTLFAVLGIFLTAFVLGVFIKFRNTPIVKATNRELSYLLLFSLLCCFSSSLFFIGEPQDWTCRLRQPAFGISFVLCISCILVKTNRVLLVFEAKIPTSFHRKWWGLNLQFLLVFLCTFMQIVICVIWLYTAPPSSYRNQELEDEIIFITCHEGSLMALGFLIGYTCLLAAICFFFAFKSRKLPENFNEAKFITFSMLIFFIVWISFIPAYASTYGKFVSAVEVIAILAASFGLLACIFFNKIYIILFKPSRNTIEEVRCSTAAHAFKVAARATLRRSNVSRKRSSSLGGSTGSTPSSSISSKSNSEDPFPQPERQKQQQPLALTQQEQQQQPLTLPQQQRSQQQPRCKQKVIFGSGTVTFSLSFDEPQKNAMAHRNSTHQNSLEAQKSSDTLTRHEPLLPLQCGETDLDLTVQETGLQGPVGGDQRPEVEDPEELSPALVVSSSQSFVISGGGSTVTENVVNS
Kind of assay: intracellular Ca assay, CaSR antagonist activity in HEK293/hCaSR cells. It is filed as cell-based. Conditions: Fura2-AM, inhibition of response to calcium chloride ligand solution, read-out: IC50 values according to the intracellular Ca assay (CaSR antagonist activity). Here is the method: HEK293 cells stably expressing human calcium-sensing receptor (CaSR) (termed HEK293/hCaSR cells) were used. HEK293/hCaSR cells were cultured in a culture medium [DMEM medium containing 0.5 mg/mL Geneticin, 50 Unit/mL penicillin, 50 μg/mL streptomycin and 10% fetal bovine serum (FBS), all manufactured by Invitrogen] to semiconfluent in an incubator at 37° C. under 5% carbon dioxide atmosphere.
Cultured cells were washed with phosphate buffered saline (PBS(−), manufactured by Dainippon Sumitomo Pharmaceutical Company) which had been prewarmed to 37° C., added with PBS(−) containing 10 mM ethylenediamine tetraacetic acid (EDTA), and then incubated in an incubator at 37° C. for 10 minutes. After adding the culture medium to separate the cells, cell suspension was transferred to a centrifuge tube. Cells were collected by centrifuge at 1,500 rpm for 3 minutes, and resuspended in Ca assay buffer [20 mM HEPES buffer (pH 7.4), 115 mM sodium chloride, 5.4 mM potassium chloride, 0.8 mM magnesium chloride, 0.8 mM calcium chloride, 13.8 mM D(+)-glucose (all manufactured by Wako Pure Chemicals) and 0.1% bovine serum albumin (manufactured by SIGMA)] containing 0.2% Pluronic F-127 (manufactured by Molecular Probes) and […] Fura2-AM (manufactured by DOJINDO LABORATORIES) to obtain a cell suspension of 5×10^6 cells/mL. After incubating at 37° C. for 30 minutes, the cells were washed twice with the Ca assay buffer and suspended in the same buffer to obtain a cell suspension of 1×10^6 cells/60 μL. 60 μL of the cell suspension was aliquoted to each well of a 96 well UV microplate (manufactured by Corning Co.) to give a cell plate.
The test compound was diluted with the Ca assay buffer to five times the final concentration and then 80 μL of the diluted compound was applied to each well of a 96 well round bottomed microplate (manufactured by Corning Co.) to give a sample plate. 80 μL of the Ca assay buffer containing 7.5 mM calcium chloride (i.e., ligand solution) was applied to each well of a 96 well round bottomed microplate to give a ligand plate. Then, thus prepared sample plate, ligand plate, and the cell plate were placed in Functional Drug Screening System (FDSS) 4000 (manufactured by Hamamatsu Photonics K.K.) which had been preswitched on and prewarmed to 37° C. Measurements were then carried out as follows. After incubating the cell plate for 180 seconds, fluorescence intensity was measured every two seconds (excitation wavelength; 340 nm and 380 nm, measurement wavelength; 500 nm). After the measurement for 40 seconds, 20 μL of the test compound solution from the sample plate was added to the cell plate, followed by continuous measurement for 160 seconds. Then, 20 μL of the ligand solution from the ligand plate was added to the cell plate, followed by continuous measurement for 100 seconds.
Amount of change in intracellular Ca concentration is indicated as a peak height of the ratio of the fluorescence intensity with excitation of 340 nm and 380 nm (i.e., fluorescence intensity with excitation at 340 nm/fluorescence intensity with excitation at 380 nm) that is obtained from the difference between the maximum ratio after adding the ligand solution and the ratio before adding the ligand solution. Further, when the peak height obtained from the Ca assay buffer containing no test compound has inhibition ratio of 0% while the peak height obtained from the Ca assay buffer containing no calcium chloride as a ligand solution has inhibition ratio of 100%, inhibition ratio for each test compound (i.e., CaSR antagonist activity) was calculated.

Each structure is given as a SMILES string.

For `CN(C[C@H](O)CNC(C)(C)CC1Cc2ccccc2C1)S(=O)(=O)c1c(Cl)cc(-c2ccc(CC(=O)O)cc2)cc1Cl` [Exp. 3-140, (R)-2-(3′,5′-dichloro-4′-(N-(3-(1-(2,3-dihydro-1H-inden-2-yl)-2-methylpropan-2-ylamino)-2-hydroxypropyl)-N-methylsulfamoyl)biphenyl-4-yl)acetic acid], the IC50 is ≤ 300 nM.

Regarding `CN(C[C@H](O)CNC(C)(C)CC1Cc2ccccc2C1)S(=O)(=O)c1cc(-c2ccc(CCC(=O)O)s2)cc(C(F)(F)F)c1` [Exp. 8-1, (R)-3-(5-(3-(N-(3-(1-(2,3-dihydro-1H-inden-2-yl)-2-methylpropan-2-ylamino)-2-hydroxypropyl)-N-methylsulfamoyl)-5-(trifluoromethyl)phenyl)thiophen-2-yl)propionic acid], the IC50 was ≤ 300 nM.

Turning to `CN(C[C@H](O)CNC(C)(C)Cc1ccc2ccccc2c1)S(=O)(=O)c1ccc(-c2ccc(SCC(=O)O)cc2)cc1` [Exp. 3-47, (R)-2-(4′-(N-(2-hydroxy-3-(2-methyl-1-(naphthalen-2-yl)propan-2-ylamino)propyl)-N-methylsulfamoyl)biphenyl-4-ylthio)acetic acid], the IC50 lay in the range of 300 to 1000 nM.

As to `CN(C[C@H](O)CNC(C)(C)Cc1ccc2ccccc2c1)S(=O)(=O)c1cccc(-c2cccc(C(=O)O)c2)c1` [Exp. 3-5, (R)-3′-(N-(2-hydroxy-3-(2-methyl-1-(naphthalen-2-yl)propan-2-ylamino)propyl)-N-methylsulfamoyl)biphenyl-3-carboxylic acid], the IC50 is ≤ 300 nM.

`CN(CC(O)CNC(C)(C)CC1Cc2ccccc2C1)S(=O)(=O)c1cc(C=CC(=O)O)cc(C(F)(F)F)c1` (stereo not shown) [Exp. 11-1, 3-(3-(N-(3-(1-(2,3-dihydro-1H-inden-2-yl)-2-methylpropan-2-ylamino)-2-hydroxypropyl)-N-methylsulfamoyl)-5-(trifluoromethyl)phenyl)acrylic acid]: the IC50 is ≤ 300 nM.

In the case of `CN(C[C@H](O)CNC(C)(C)Cc1ccc(Cl)c(F)c1)S(=O)(=O)c1cccc(-c2ccc(CCC(=O)O)cc2)c1` [Exp. 3-78, (R)-3-(3′-(N-(3-(1-(4-chloro-3-fluorophenyl)-2-methylpropan-2-ylamino)-2-hydroxypropyl)-N-methylsulfamoyl)biphenyl-4-yl)propionic acid], the IC50 is 1000 to 3000 nM.

Turning to `Cc1cc(-c2ccccc2CS(=O)(=O)N(C)C[C@H](O)CNC(C)(C)Cc2ccc3ccccc3c2)ccc1C(=O)O` [Exp. 3-81, (R)-2′-((N-(2-hydroxy-3-(2-methyl-1-(naphthalen-2-yl)propan-2-ylamino)propyl)-N-methylsulfamoyl)methyl)-3-methylbiphenyl-4-carboxylic acid], the IC50 was 300 to 1000 nM.

With `CN(C[C@H](O)CNC(C)(C)CC1Cc2ccccc2C1)S(=O)(=O)c1cccc(-c2cc(F)cc(C(=O)O)c2)c1` [Exp. 3-60, (R)-3′-(N-(3-(1-(2,3-dihydro-1H-inden-2-yl)-2-methylpropan-2-ylamino)-2-hydroxypropyl)-N-methylsulfamoyl)-5-fluorobiphenyl-3-carboxylic acid], the IC50 is ≤ 300 nM.

For the molecule `Cc1ccc(CC(C)(C)NC[C@@H](O)CN(C)S(=O)(=O)c2cccc(-c3cc(F)cc(C(=O)O)c3)c2)cc1F` [Exp. 3-71, (R)-5-fluoro-3′-(N-(3-(1-(3-fluoro-4-methylphenyl)-2-methylpropan-2-ylamino)-2-hydroxypropyl)-N-methylsulfamoyl)biphenyl-3-carboxylic acid], the IC50 was 1000 to 3000 nM.

For `CN(C[C@H](O)CNC(C)(C)Cc1ccc2ccccc2c1)S(=O)(=O)c1cccc(-c2ccc(NCC(=O)O)cc2)c1` [Exp. 3-28, (R)-2-(3′-(N-(2-hydroxy-3-(2-methyl-1-(naphthalen-2-yl)propan-2-ylamino)propyl)-N-methylsulfamoyl)biphenyl-4-ylamino)acetic acid], the IC50 lay in the range of 300 to 1000 nM.
